The text below walks through data of BindingDB's records for doi:10.1021/jm301258w (University of Innsbruck, 2012).

The nature of assay [1]: Agonist activity at human dopamine D3 receptor expressed in CHOp cells assessed as stimulation of mitogenesis incubated for 24 hrs by [3H]thymidine incorporation assay.
A short description of assay [2]: Antagonist activity at human dopamine D3 receptor expressed in CHOp cells assessed as inhibition of quinpirol-induced mitogenesis incubated for 24 hrs by [3H]thymidine incorporation assay.
Assay [3] can be described thus: Antagonist activity at human dopamine D2 receptor expressed in CHOp cells assessed as inhibition of quinpirol-induced mitogenesis incubated for 24 hrs by [3H]thymidine incorporation assay.

The structures appear in SMILES notation.

For `CCCN(CCc1ccccc1)CCc1cccc(O)c1`, the concentration for a half-maximal effect (EC50) – broadly, the concentration at which the effect is half-maximal – in assay [1] is 5.3 nM.
For `Oc1cccc(CCN(CCc2ccccc2)CC2CCC2)c1`, the results for the IC50 in assay [2] and in assay [3] were 953 nM and 1650 nM, respectively. Also, in assay [1], the concentration for a half-maximal effect (EC50) was above 10000 nM.
In the case of `Oc1cccc(CCN(CCc2ccccc2)CC2CC2)c1`, in assay [1], the EC50 amounted to 32 nM.
For `CCCCCCN(CCc1ccccc1)CCc1cccc(O)c1`, the half-inhibitory concentration (IC50) (as a rule, the concentration at which inhibition is half-maximal) in assay [3] turned out to be 1250 nM.
